Results: patent US20240409662A1, “ANTIBODY MASKS AND USES THEREOF” (Vibrant Pharma Limited, priority 2021, published 2024)
Entries after “also recorded” stand apart in the source; their conditions may differ. No end group written: not given here.

B1: L6-D2E (bispecific antibody)
heavy: QEGNEESSGGGSPLGLSSGGGSEVKLLESGGGLVQPKGSLKLSCAASGFTFNTYAMNWVRQAPGKGLEWVARIRSKYNNYATYYADSVKDRFTISRDDSQSILYLQMNNLKTEDTAMYYCVRHGNFGNSYVSWFAYWGQGTLVTVSS
light: QAVVTQESALTTSPGETVTLTCRSSTGAVTTSNYANWVQEKPDHLFTGLIGGTNKRAPGVPARFSGSLIGDKAALTITGAQTEDEAIYFCALWYSNLWVFGGGTKVEIK
chain: EVQLVESGGGFVQAGESLTLSCTSSTLTFTPYRMAWYRQAPGKQRDLVADISSGDGRTTNYADFAKGRFTISRDNIKNTVFLRMTNLKPEDTAVYYCNTFVSFVGIARSWGQGTQVTVSSESKYGPPCPPCPAPEAAGGPSVFLFPPKPKDTLMISRTPEVTCVVVDVSQEDPEVQFNWYVDGVEVHNAKTKPREEQFNSTYRVVSVLTVLHQDWLNGKEYKCKVSNKGLPSSIEKTISKAKGQPREPQVCTLPPSQEEMTKNQVSLSCAVKGFYPSDIAVEWESNGQPENNYKTTPPVLDSDGSFFLVSRLTVDKSRWQEGNVFSCSVMHEALHNRFTQKSLSLSL
B2: MMP9-digested L4-D2E (bispecific antibody, not shown: small tags and cut ends)
heavy: EVKLLESGGGLVQPKGSLKLSCAASGFTFNTYAMNWVRQAPGKGLEWVARIRSKYNNYATYYADSVKDRFTISRDDSQSILYLQMNNLKTEDTAMYYCVRHGNFGNSYVSWFAYWGQGTLVTVSS
light: QAVVTQESALTTSPGETVTLTCRSSTGAVTTSNYANWVQEKPDHLFTGLIGGTNKRAPGVPARFSGSLIGDKAALTITGAQTEDEAIYFCALWYSNLWVFGGGTKVEIK
chain: EVQLVESGGGFVQAGESLTLSCTSSTLTFTPYRMAWYRQAPGKQRDLVADISSGDGRTTNYADFAKGRFTISRDNIKNTVFLRMTNLKPEDTAVYYCNTFVSFVGIARSWGQGTQVTVSSESKYGPPCPPCPAPEAAGGPSVFLFPPKPKDTLMISRTPEVTCVVVDVSQEDPEVQFNWYVDGVEVHNAKTKPREEQFNSTYRVVSVLTVLHQDWLNGKEYKCKVSNKGLPSSIEKTISKAKGQPREPQVCTLPPSQEEMTKNQVSLSCAVKGFYPSDIAVEWESNGQPENNYKTTPPVLDSDGSFFLVSRLTVDKSRWQEGNVFSCSVMHEALHNRFTQKSLSLSL
B3: MMP9-digested L5-D2E (bispecific antibody, not shown: small tags and cut ends)
heavy: EVKLLESGGGLVQPKGSLKLSCAASGFTFNTYAMNWVRQAPGKGLEWVARIRSKYNNYATYYADSVKDRFTISRDDSQSILYLQMNNLKTEDTAMYYCVRHGNFGNSYVSWFAYWGQGTLVTVSS
light: QAVVTQESALTTSPGETVTLTCRSSTGAVTTSNYANWVQEKPDHLFTGLIGGTNKRAPGVPARFSGSLIGDKAALTITGAQTEDEAIYFCALWYSNLWVFGGGTKVEIK
chain: EVQLVESGGGFVQAGESLTLSCTSSTLTFTPYRMAWYRQAPGKQRDLVADISSGDGRTTNYADFAKGRFTISRDNIKNTVFLRMTNLKPEDTAVYYCNTFVSFVGIARSWGQGTQVTVSSESKYGPPCPPCPAPEAAGGPSVFLFPPKPKDTLMISRTPEVTCVVVDVSQEDPEVQFNWYVDGVEVHNAKTKPREEQFNSTYRVVSVLTVLHQDWLNGKEYKCKVSNKGLPSSIEKTISKAKGQPREPQVCTLPPSQEEMTKNQVSLSCAVKGFYPSDIAVEWESNGQPENNYKTTPPVLDSDGSFFLVSRLTVDKSRWQEGNVFSCSVMHEALHNRFTQKSLSLSL
B4: L7-D2G (bispecific antibody)
heavy: QGGNEESSGGSGSPLGLSSGGSGSEVKLLESGGGLVQPKGSLKLSCAASGFTFNTYAMNWVRQAPGKGLEWVARIRSKYNNYATYYADSVKDRFTISRDDSQSILYLQMNNLKTEDTAMYYCVRHGNFGNSYVSWFAYWGQGTLVTVSS
light: QAVVTQESALTTSPGETVTLTCRSSTGAVTTSNYANWVQEKPDHLFTGLIGGTNKRAPGVPARFSGSLIGDKAALTITGAQTEDEAIYFCALWYSNLWVFGGGTKVEIK
chain: EVQLVESGGGFVQAGESLTLSCTSSTLTFTPYRMAWYRQAPGKQRDLVADISSGDGRTTNYADFAKGRFTISRDNIKNTVFLRMTNLKPEDTAVYYCNTFVSFVGIARSWGQGTQVTVSSESKYGPPCPPCPAPEAAGGPSVFLFPPKPKDTLMISRTPEVTCVVVDVSQEDPEVQFNWYVDGVEVHNAKTKPREEQFNSTYRVVSVLTVLHQDWLNGKEYKCKVSNKGLPSSIEKTISKAKGQPREPQVCTLPPSQEEMTKNQVSLSCAVKGFYPSDIAVEWESNGQPENNYKTTPPVLDSDGSFFLVSRLTVDKSRWQEGNVFSCSVMHEALHNRFTQKSLSLSL

molecular target: CD3 on human PBMC (human, UniProt P07766 23-207); assay: cell-based or functional assay; details: not given
Sequence (P07766 23-207): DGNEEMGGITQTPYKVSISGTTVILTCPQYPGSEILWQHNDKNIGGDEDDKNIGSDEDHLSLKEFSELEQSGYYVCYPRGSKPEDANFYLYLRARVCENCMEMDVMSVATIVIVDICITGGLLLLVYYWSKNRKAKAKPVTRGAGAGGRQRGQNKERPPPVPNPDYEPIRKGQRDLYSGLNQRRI

| Molecule | Digested vs. masked (ratio of killing EC50) [fold] | EC50 of M-TCE-induced killing of HT29 cells in the presence of human PBMC [pM] |
| --- | --- | --- |
| B1 | 32 | 317 |
| B2 | – | 11 |
| B3 | – | 13 |
| B4 | 9 | 96 |

molecular target: SP34; assay: BLI affinity of biotinylated N-terminal CD3ε peptides (on SA biosensor) to SP34 as analyte; assay type: binding; details: peptide immobilized
From the text: Bio-Layer Interferometry (BLI) technique was employed for the measurement of protein-protein interactions in this study. A Octet Red96 system and Streptavidin (SA) or AHC biosensors (ForteBio, Fremont) were utilized.
To measure the binding of SP34 to CD3ε peptides, the peptides were immobilized on the SA biosensor through SA-biotin interaction according the manufacturer's instruction. After running PBS with 0.01% Tween-20 buffer to stabilize baselines, the biosensors were dipped into solid black 96-well plates (Greiner Bio-One, Cat. #65520, Monroe, North Carolina, USA) containing SP34 in indicated concentrations. Association and dissociation were measured accordingly, and binding kinetics were calculated using ForteBio's Data Analysis 12.0 software.
BLI technology was employed to measure the affinity of the six peptides to SP34 with a ForteBio Red96. These peptides were immobilized on the SA Biosensor and their affinities were measured using SP34 as the analyte. The binding sensorgrams indicate that SP34 binds to all six peptides with very similar profiles (FIG. 1C). The affinities of the bindings were determined as between 1-4 nM (Table 1), very similar to that of CD3δε/SP34 binding. […] It is further hypothesized that a N-terminal CD3ε peptide […] can bind to SP34 as well.

| Molecule | Kd [nM] | ka [M⁻¹ s⁻¹] | kd [s⁻¹] |
| --- | --- | --- | --- |
| CD3ε-p2: N-terminal human CD3ε peptide with C-terminal GGGGS linker, biotinylated (QDGNEEMGGGGGS; not fully specified (C-terminus); also: biotinylated) | 3.6 | 65000 | 0.00024 |
| CD3ε-p5: N-terminal human CD3ε peptide with C-terminal GGGGS linker, biotinylated (QDGNEEMGGITQTPYKVGGGGS; not fully specified (C-terminus); also: biotinylated) | 1.8 | 54000 | 9.8e-05 |
| CD3ε-p3: N-terminal human CD3ε peptide with C-terminal GGGGS linker, biotinylated (QDGNEEMGGITGGGGS; not fully specified (C-terminus); also: biotinylated) | 2 | 56000 | 0.00011 |
| CD3ε-p6: N-terminal human CD3ε peptide with C-terminal GGGGS linker, biotinylated (QDGNEEMGGITQTPYKVSISGGGGS; not fully specified (C-terminus); also: biotinylated) | 3.5 | 46000 | 0.00016 |
| CD3ε-p7: N-terminal human CD3ε peptide with C-terminal GGGGS linker, biotinylated (QDGNEEMGGITQTPYKVSISGTTGGGGS; not fully specified (C-terminus); also: biotinylated, site not given here) | 1.3 | 100000 | 0.00013 |

system: SP34; assay: ELISA of SP34 binding to coated CD3ε1-27-Fc fusion proteins; details: FIG. 2A
Method: Examination of binding of SP34 to CD3ε1-27-Fc fusion proteins was conducted by ELISA. 100 μL of 2 μg/mL fusion protein was coated on 96 well microtiter plate (Nunc) at room temperature (RT) overnight. After blocking the wells with 3% milk-PBS (3% non-fat milk in 137 mM NaCl, 2.7 mM KCl, 10 mM Na2HPO4 1.8 mM KH2PO4) at RT for 1 hr and 6 washes with 0.05% PBST (0.05% Tween-20 in PBS), SP34 (5 μg/mL, 50 μL/well) was added to the wells as the first antibody and allowed for incubation at 37° C. for 1 hr. The wells were washed for 6 times with PBST after the incubation, and the second antibody horseradish peroxidase (HRP) labeled anti-Kappa light chain (Sigma, 1:6,000 dilution, 50 μL/well) was added and allowed for incubation at RT for 50 min. After 6 washes with PBST, 3,3′, 5,5′-Tetramethylbenzidine (TMB) was added to develop color, and 1M HCl was then added to stop the reaction. ELISA titer was read with a microtiter plate reader (Thermo Fisher) at 450 nm wavelength.

| Molecule | binding of SP34 to fusion protein |
| --- | --- |
| D2N: D2N mutant of the CD3ε1-27-Fc fusion protein | significant binding; also recorded: maintained binding |
| D2G: D2G mutant of the CD3ε1-27-Fc fusion protein | significant binding; also recorded: maintained binding |
| D2C: D2C mutant of the CD3ε1-27-Fc fusion protein | significant binding; also recorded: maintained binding |
| D2E: D2E mutant of the CD3ε1-27-Fc fusion protein | significant binding; also recorded: maintained binding |
| G3A: G3A mutant of the CD3ε1-27-Fc fusion protein | significant binding; also recorded: maintained binding |
